Reference: US20110092547A1 (priority 2007, published 2011)

Target: T1, human DGAT1 (Homo sapiens, UniProt O75907)
T1 construct: made in house; host or cells: Sf9 insect cells (recombinant baculovirus); membrane fraction
T1 sequence (O75907 1-488): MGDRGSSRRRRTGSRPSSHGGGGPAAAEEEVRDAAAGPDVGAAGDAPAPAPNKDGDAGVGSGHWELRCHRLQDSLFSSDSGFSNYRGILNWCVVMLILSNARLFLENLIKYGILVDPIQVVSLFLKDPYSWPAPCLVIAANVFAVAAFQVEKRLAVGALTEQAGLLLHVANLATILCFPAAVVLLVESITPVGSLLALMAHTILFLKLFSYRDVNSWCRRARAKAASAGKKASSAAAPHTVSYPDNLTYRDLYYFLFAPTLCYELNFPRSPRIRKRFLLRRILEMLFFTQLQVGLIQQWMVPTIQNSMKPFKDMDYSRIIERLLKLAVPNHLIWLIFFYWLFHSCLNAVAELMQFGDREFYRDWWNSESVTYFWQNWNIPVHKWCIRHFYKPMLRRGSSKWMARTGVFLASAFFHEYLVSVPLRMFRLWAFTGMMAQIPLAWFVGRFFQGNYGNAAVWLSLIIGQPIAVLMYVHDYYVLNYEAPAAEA
Assay: Human enzyme assay, further developed assay (14C oleoyl CoA, 96 well plate)
Format: biochemical
Settings: human DGAT1 expressed in insect cell (sf9) membranes
Description: The in vitro assay to identify DGAT1 inhibitors uses human DGAT1 expressed in insect cell membranes as the enzyme source (Proc. Natl. Acad. Sci. 1998, 95, 13018-13023). Briefly, sf9 cells were infected with recombinant baculovirus containing human DGAT1 coding sequences and harvested after 48 h. Cells were lysed by sonication and membranes isolated by centrifuging at 28000 rpm for 1 h at 4° C. on a 41% sucrose gradient. The membrane fraction at the interphase was collected, washed, and stored in liquid nitrogen.
In a further developed assay, DGAT1 activity was assayed by a modification of the method described by Coleman (Methods in Enzymology 1992, 209, 98-102). Compound at 0.00003-10 μM (final cone) was incubated with 25 μg/ml (final cone) membrane protein, 5 mM MgCl2, and 100 μM 1,2 dioleoyl-sn-glycerol in a total assay volume of 200 μl in a 96 well plate. The reaction was started by adding ^14C oleoyl coenzyme A (30 μM final concentration) and incubated at room temperature for 30 minutes. The reaction was stopped by adding 300 μl 2-propanol:heptane 7:1. Radioactive triolein product was separated into the organic phase by adding 200 μl heptane and 200 μl 0.1 M carbonate buffer pH 9.5. DGAT1 activity was quantified by counting aliquots of the upper heptane layer by liquid scintillography.

| IC50 | Structure (SMILES) |
| --- | --- |
| 3.8 nM | O=C(Nc1ccc(O[C@H]2CC[C@@H](C(=O)O)CC2)nc1)c1nnc(Nc2ccc(F)c(Cl)c2)o1 [Example 16, (1s,4s)-4-(5-(5-(3-chloro-4-fluorophenylamino)-1,1,4-oxadiazole-2-carboxamido)pyridin-2-yloxy)cyclohexanecarboxylic acid] |
| 48 nM | CC(C)(C)c1ccc(Nc2nnc(C(=O)Nc3ccc(O[C@H]4CC[C@H](C(=O)O)CC4)nc3)o2)cc1 [Example 31, (1r,4r)-4-(5-(5-(4-tert-butylphenyl-amino)-1,3,4-oxadiazole-2-carboxamido)pyridin-2-yloxy)cyclo-hexane-carboxylic acid] |
| 19 nM | CC(C)c1ccc(Nc2nnc(C(=O)Nc3ccc(O[C@H]4CC[C@@H](C(=O)O)CC4)nc3)o2)cc1 [Example 10, (1s,4s)-4-(5-(5-(4-isopropylphenylamino)-1,3,4-oxadiazole-2-carboxamido)pyridin-2-yloxy)cyclohexanecarboxylic acid] |
| 26 nM | O=C(Nc1ccc(O[C@H]2CC[C@H](C(=O)O)CC2)nc1)c1nnc(Nc2ccc(F)c(F)c2)o1 [Example 32, (1r,4r)-4-(5-(5-(3,4-difluoro-phenylamino)-1,3,4-oxadiazole-2-carboxamido)pyridin-2-yloxy)cyclo-hexane-carboxylic acid] |
| 55 nM | CC(C)(C)c1ccc(Nc2nnc(C(=O)Nc3ccc(O[C@H]4CC[C@@H](C(=O)O)CC4)nc3)o2)cc1 [Example 9, (1s,4s)-4-(5-(5-(4-tert-butylphenylamino)-1,3,4-oxadiazole-2-carboxamido)pyridin-2-yloxy)cyclohexanecarboxylic acid] |
| 2.1 nM | O=C(Nc1ccc(O[C@H]2C[C@H](C(=O)O)C2)nc1)c1nnc(Nc2ccc(F)c(F)c2)o1 [Example 66, trans-3-(5-(5-(3,4-difluorophenylamino)-1,3,4-oxadiazole-2-carboxamido)pyridin-2-yloxy)cyclobutanecarboxylic acid] |
| 13 nM | Cc1ccc(Nc2nnc(C(=O)Nc3ccc(O[C@H]4CC[C@H](C(=O)O)CC4)nc3)o2)cc1Cl [Example 26, (1r,4r)-4-(5-(5-(3-chloro-4-methyl-phenylamino)-1,3,4-oxadiazole-2-carboxamido)pyridin-2-yloxy)cyclo-hexane-carboxylic acid] |
| 9.8 nM | O=C(Nc1ccc(OC2CCC(C(=O)O)CC2)nc1)c1nnc(Nc2ccc(F)cc2)o1 (stereo not drawn) [Example 20, 4-4-({5-[({5-[(4-fluorophenyl)amino]-1,3,4-oxadiazol-2-yl}-carbonyl)amino]pyridin-2-yl}oxy)cyclohexanecarboxylic acid] |
| 30 nM | CC(C)c1ccc(Nc2nnc(C(=O)Nc3ccc(O[C@H]4C[C@@H](C(=O)O)C4)nc3)o2)cc1 [Example 63] |
| 1.9 nM | CC(C)c1ccc(Nc2nnc(C(=O)Nc3ccc(O[C@H]4C[C@H](C(=O)O)C4)nc3)o2)cc1 [Example 64] |

The next lines start with the compound.

| Structure (SMILES) | IC50 |
| --- | --- |
| CC1(C(=O)O)CCC(Oc2ccc(NC(=O)c3nnc(Nc4ccc(F)c(Cl)c4)o3)cn2)CC1 (mixture of isomers) [Example 69, 4-(5-(5-(3-Chloro-4-fluorophenylamino)-1,3,4-oxadiazole-2-carboxamido)pyridin-2-yloxy)-1-methylcyclohexanecarboxylic acid] | 4.3 nM |
| O=C(Nc1cnc(O[C@H]2CC[C@@H](C(=O)O)CC2)c(Cl)c1)c1nnc(Nc2ccc(F)c(F)c2)o1 [Example 47, (1s,4s)-4-(3-Chloro-5-(5-(3,4-difluorophenylamino)-1,3,4-oxadiazole-2-carboxamido)pyridin-2-yloxy)cyclohexanecarboxylic acid] | 22 nM |
| O=C(Nc1ccc(O[C@H]2CC[C@@H](C(=O)O)CC2)nc1F)c1nnc(Nc2ccc(F)c(F)c2)o1 [Example 50, (1s,4s)-4-(5-(5-(3,4-Difluorophenylamino)-1,3,4-oxadiazole-2-carboxamido)-6-fluoropyridin-2-yloxy)cyclohexanecarboxylic acid] | 3.4 nM |
| O=C(Nc1ccc(O[C@H]2CC[C@@H](C(=O)O)CC2)nc1)c1nnc(Nc2ccc(F)c(F)c2)o1 [Example 1, cis-4-[5-[[5-[(3,4-Difluorophenyl)amino]-1,3,4-oxadiazole-2-carbonyl]amino]pyridin-2-yl]oxycyclohexane-1-carboxylic acid] | 11 nM |
| Cc1cc(NC(=O)c2nnc(Nc3cccc(Cl)c3)o2)cnc1O[C@H]1CC[C@@H](C(=O)O)CC1 [Example 18, (1s,4s)-4-(5-(5-(3-chlorophenylamino)-1,3,4-oxadiazole-2-carboxamido)-3-methylpyridin-2-yloxy)cyclohexanecarboxylic acid] | 21 nM |
| COC[C@]1(C(=O)O)CC[C@H](Oc2ccc(NC(=O)c3nnc(Nc4ccc(F)c(F)c4)o3)cn2)CC1 [Example 4, (1r,4r)-4-(5-(5-(3,4-Difluorophenylamino)-1,3,4-oxadiazole-2-carboxamido)pyridin-2-yloxy)-1-(methoxymethyl)cyclohexanecarboxylic acid] | 15 nM |
| O=C(Nc1cnc(O[C@H]2CC[C@@H](C(=O)O)CC2)cc1F)c1nnc(Nc2ccc(F)c(F)c2)o1 [Example 59, (1s,4s)-4-(5-(5-(3,4-Difluorophenylamino)-1,3,4-oxadiazole-2-carboxamido)-4-fluoropyridin-2-yloxy)cyclohexanecarboxylic acid] | 8.6 nM |
| C[C@]1(C(=O)O)CC[C@H](Oc2ccc(NC(=O)c3nnc(Nc4ccc(F)c(F)c4)o3)cn2)CC1 [Example 2, (1r,4r)-4-(5-(5-(3,4-difluorophenylamino)-1,3,4-oxadiazole-2-carboxamido)pyridin-2-yloxy)-1-methylcyclohexanecarboxylic acid] | 494 nM |
| O=C(Nc1ccc(O[C@H]2CC[C@H](C(=O)O)CC2)nc1)c1nnc(Nc2cccc(OC(F)(F)F)c2)o1 [Example 34, (1r,4r)-4-(5-(5-(3-(trifluoromethoxy)phenylamino)-1,3,4-oxadiazole-2-carboxamido)pyridin-2-yloxy)cyclohexanecarboxylic acid] | 21 nM |
| C[C@]1(C(=O)O)CC[C@@H](Oc2ccc(NC(=O)c3nnc(Nc4ccc(F)c(F)c4)o3)cn2)CC1 [Example 68, (1s,4s)-4-(5-(5-(3,4-Difluorophenylamino)-1,3,4-oxadiazole-2-carboxamido)pyridin-2-yloxy)-1-methylcyclohexanecarboxylic acid] | 8.3 nM |
| COC[C@]1(C(=O)O)CC[C@H](Oc2ccc(NC(=O)c3nnc(Nc4cc(F)c(F)cc4F)o3)cn2)CC1 [Example 3, 1-(Methoxymethyl)-4-(5-(5-(2,4,5-trifluorophenylamino)-1,3,4-oxadiazole-2-carboxamido)pyridin-2-yloxy)cyclohexanecarboxylic acid] | 35 nM |
| Cc1cc(OC2CCC(C(=O)O)CC2)ncc1NC(=O)c1nnc(Nc2ccc(F)c(Cl)c2)o1 (stereo not drawn) [Example 41, (1s,4s)-4-(5-(5-(3-Chloro-4-fluorophenylamino)-1,3,4-oxadiazole-2-carboxamido)-4-methylpyridin-2-yloxy) cyclohexanecarboxylic acid] | 3.4 nM |
| CS(=O)(=O)NC(=O)[C@H]1CC[C@@H](Oc2ccc(NC(=O)c3nnc(Nc4ccc(F)c(F)c4)o3)cn2)CC1 [Example 45, 5-(3,4-Difluorophenylamino)-N-(6-((1s,4s)-4-(methylsulfonylcarbamoyl)cyclohexyloxy)pyridin-3-yl)-1,3,4-oxadiazole-2-carboxamide] | 6.4 nM |
| COc1cc(O[C@H]2CC[C@@H](C(=O)O)CC2)ncc1NC(=O)c1nnc(Nc2ccc(Br)cc2Cl)o1 [Example 44] | 54 nM |
| COc1nc(O[C@H]2CC[C@@H](C(=O)O)CC2)ccc1NC(=O)c1nnc(Nc2ccc(F)c(Cl)c2)o1 [Example 52, (1s,4s)-4-(5-(5-(3-Chloro-4-fluorophenylamino)-1,3,4-oxadiazole-2-carboxamido)-6-methoxypyridin-2-yloxy)cyclohexanecarboxylic acid] | 23 nM |
| O=C(O)C[C@H]1CC[C@H](Oc2ccc(NC(=O)c3nnc(Nc4ccc(F)c(F)c4)o3)cn2)CC1 [Example 37, 2-((1r,4r)-4-(5-(5-(3,4-difluorophenylamino)-1,3,4-oxadiazole-2-carboxamido)pyridin-2-yloxy)cyclohexyl)acetic acid] | 18 nM |
| O=C(O)C[C@H]1CC[C@@H](Oc2ccc(NC(=O)c3nnc(Nc4ccc(F)c(Cl)c4)o3)cn2)CC1 [Example 53, 2-((1s,4s)-4-(5-(5-(3-Chloro-4-fluorophenylamino)-1,3,4-oxadiazole-2-carboxamido)pyridin-2-yloxy)cyclohexyl)acetic acid] | 3.1 nM |
